Results as given in US20250352588A1, “EFFECT OF A PROBIOTIC COMPOSITION ON VAGINAL LACTOBACILLUS SPECIES” (INTERNATIONAL N&H DENMARK APS, priority 2021, published 2025).

Experiments:
[1] = tested on: Lactobacillus crispatus 13331; test: Growth experiments with probiotic supernatant and biogenic amines (OD600, 44 h); type: cell-based; conditions: highest physiological concentration (cadaverine 4990 μM, putrescine 3179 μM); putrescine effect from 0.5 h to end of experiment
Protocol: The growth experiment was performed as described above but with some modifications. The Lactobacillus crispatus strain was cultured in SVF media (control), and in the SVF media containing one of the biogenic amines, and in the SVF media containing one of the biogenic amines and probiotic supernatant. The effect of all five biogenic amines was investigated independently on the pure culture of Lactobacillus crispatus 13331. Each test condition was investigated in triplicates in the honey-comb plate. […] The growth study was performed in SVF pH 4.5 using Bioscreen© C system measuring the optical density at 600 nm every 30 min for 44 h at 37° C. […] Growth experiments were performed in three independent biological replicates.

L. crispatus strains = conditions: Borgogna et al., 2021; cited from earlier work

NCCCCCN [cadaverine]
growth in the presence of biogenic amine alone vs strain alone (control) [1]: no statistically significant difference in growth

NCCCCN [putrescine]
growth in the presence of biogenic amine alone vs strain alone (control) [1]: significant reduction in the growth
effect on growth of L. crispatus strains (L. crispatus strains): negatively affect the growth
